Some test systems named below: CCRF-CEM leukemia; HCT-116 colon; HOP-92 NSCLC; IGROV1 ovarian; MOLT-4 leukemia; NCI-H226 lung; NCI-H23 lung; SNB-19 CNS; UO-31 renal; SR leukemia.
Test in all cases: DTP human tumour cell line panel, 48 h

The values that follow come from PubChem BioAssay (NCI).

Values joined by “and” are separate entries in the source; they are usually repeats but may differ in a detail not shown here. Identical values can stand only once.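 Compound exposure: 48 hours, 5 concentrations, 96-well plates. Here, GI50 denotes the concentration required for 50% inhibition of growth. TGI: total growth inhibition.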

Turning to `Cc1ccc(C(=O)C#Cc2c[nH]c(=O)[nH]c2=O)cc1`, the TGI in the assay on CCRF-CEM leukemia is 18.8 µM; with HCT-116 colon, 18.5 µM; in the assay on HOP-92 NSCLC it was 33.3 µM; with IGROV1 ovarian it was 31.2 µM; in the assay on MOLT-4 leukemia, 23.8 µM; with NCI-H226 lung, 34.5 µM. Also, the concentration for total growth inhibition (TGI) came out at 39.6 µM with NCI-H23 lung, 43 µM with SNB-19 CNS and 37.7 µM in the assay on UO-31 renal.
Consider `CCC(c1ccc2cc(O)ccc2c1)C(C)(C)C(=O)O` (centres undefined), for which the TGI with HCT-116 colon, in the assay with HOP-92 NSCLC, with IGROV1 ovarian, in the assay with MOLT-4 leukemia, with NCI-H226 lung and in the assay on NCI-H23 lung was over 100 µM throughout. The TGI with SNB-19 CNS, in the assay on SR leukemia and in the assay with UO-31 renal was over 100 µM in each case.
Regarding `COC(=O)C(Cc1ccccc1)NC(=O)Cn1ccnc1[N+](=O)[O-]` (centres undefined), the TGI in the assay with CCRF-CEM leukemia, with HOP-92 NSCLC, in the assay with IGROV1 ovarian, in the assay with MOLT-4 leukemia, with NCI-H226 lung and in the assay on NCI-H23 lung was over 100 µM each time. The total growth inhibition concentration (TGI) with SNB-19 CNS and in the assay with UO-31 renal was over 100 µM in each case.
Regarding `COC(=O)C1=C(CS(=O)c2ccc([N+](=O)[O-])cc2[N+](=O)[O-])ON(C)C1c1ccccc1` (centres undefined), the concentration for total growth inhibition (TGI) was 37.9 µM with CCRF-CEM leukemia; over 100 µM in the assay on HCT-116 colon; over 100 µM with IGROV1 ovarian; 48.5 µM in the assay on MOLT-4 leukemia; over 100 µM with NCI-H226 lung; over 100 µM with NCI-H23 lung. Besides, the concentration for total growth inhibition (TGI) with SNB-19 CNS was over 87.9 µM; with UO-31 renal, over 100 µM.
`COc1ccccc1C(N)c1ccccc1` (centres undefined): the TGI in the assay on CCRF-CEM leukemia, in the assay with HCT-116 colon, with HOP-92 NSCLC, with IGROV1 ovarian, in the assay with MOLT-4 leukemia and in the assay with NCI-H226 lung was over 100 µM throughout. For the same compound, the TGI in the assay with NCI-H23 lung, in the assay on SNB-19 CNS and in the assay with UO-31 renal was over 100 µM in each case.
Regarding `C=CC[C@@H]1/C=C(\C)C[C@H](C)C[C@H](OC)[C@H]2O[C@@](O)(C(=O)C(=O)N3CCCC[C@H]3C(=O)O[C@H](/C(C)=C/C3CC[C@@H](O)[C@H](OC)C3)[C@H](C)[C@@H](O)CC1=O)[C@H](C)C[C@@H]2OC` (some centres undefined), the GI50 is 14.6 µM in the assay with CCRF-CEM leukemia; 13.8 µM in the assay on HCT-116 colon; 17.3 µM in the assay with IGROV1 ovarian; 14.4 µM with MOLT-4 leukemia; 15.3 µM in the assay with NCI-H226 lung; 16.3 µM in the assay on NCI-H23 lung. The GI50 with SNB-19 CNS was 15.6 µM; in the assay on SR leukemia, 14.1 µM; in the assay on UO-31 renal it was 12.8 µM. For the same compound, the concentration for total growth inhibition (TGI) with CCRF-CEM leukemia stood at 39.7 µM; in the assay on HCT-116 colon, 26.7 µM; in the assay with IGROV1 ovarian it was 41 µM; in the assay on MOLT-4 leukemia it was 41.6 µM; with NCI-H226 lung, 30.1 µM; in the assay with NCI-H23 lung, 32.7 µM. Further, the total growth inhibition concentration (TGI) is 30.4 µM in the assay on SNB-19 CNS, 39.8 µM with SR leukemia and 26.4 µM with UO-31 renal.
Take `NC1=CC(=O)c2nc3ccccc3c3ccnc1c23`: the GI50 was 11.6 µM in the assay with CCRF-CEM leukemia; 3.99 µM with HCT-116 colon; 1.57 µM in the assay with IGROV1 ovarian; 3.21 µM with MOLT-4 leukemia; 0.937 µM in the assay on NCI-H226 lung; 0.273 µM in the assay with NCI-H23 lung. The results for the GI50 in the assay on SNB-19 CNS, with SR leukemia and with UO-31 renal were 3.06 µM, 2.47 µM and 3.49 µM, respectively. Further, the concentration for total growth inhibition (TGI) is over 100 µM in the assay with CCRF-CEM leukemia; over 100 µM in the assay with HCT-116 colon; 6.33 µM in the assay on IGROV1 ovarian; over 100 µM in the assay on MOLT-4 leukemia; over 32.6 µM with NCI-H226 lung; 22.8 µM in the assay on NCI-H23 lung. Besides, the TGI was over 93.2 µM in the assay with SNB-19 CNS, over 100 µM in the assay with SR leukemia and over 56.4 µM in the assay on UO-31 renal.
As to `O=C(NC1CCCCC1)NS(=O)(=O)c1ccc(-n2nc3c(c2-c2ccc(Cl)cc2)Cc2ccccc2-3)cc1`, the GI50 was 1.13 µM in the assay on CCRF-CEM leukemia; 4.18 µM in the assay with HCT-116 colon; 6.45 µM in the assay with HOP-92 NSCLC; 18.6 µM with IGROV1 ovarian; 2.77 µM in the assay on MOLT-4 leukemia; 6.15 µM in the assay with NCI-H226 lung. Also, the GI50 in the assay with SNB-19 CNS was 43.7 µM; in the assay with UO-31 renal, 3.64 µM. Further, the concentration for total growth inhibition (TGI) is 4.36 µM with CCRF-CEM leukemia; over 100 µM in the assay on HCT-116 colon; 25 µM with HOP-92 NSCLC; 35.8 µM with IGROV1 ovarian; 7.28 µM with MOLT-4 leukemia; 54.9 µM with NCI-H226 lung. The TGI with SNB-19 CNS is over 100 µM; in the assay with UO-31 renal, 8.67 µM.
On to `COC1OC(COS(=O)(=O)c2ccc(C)cc2)C(O)C(OS(=O)(=O)c2ccc(C)cc2)C1OS(=O)(=O)c1ccc(C)cc1` (centres undefined), for which the TGI in the assay with CCRF-CEM leukemia, in the assay on HCT-116 colon, with IGROV1 ovarian, in the assay with MOLT-4 leukemia, in the assay with NCI-H226 lung and in the assay on NCI-H23 lung was over 100 µM each time. In addition, the total growth inhibition concentration (TGI) in the assay on SNB-19 CNS, with SR leukemia and in the assay on UO-31 renal was over 100 µM throughout.
As for `NCCCNCCSSC/C=C\CSSCCNCCCN`, the concentration for total growth inhibition (TGI) in the assay on CCRF-CEM leukemia was 32.3 µM and 62.5 µM; with HOP-92 NSCLC, 86.3 µM and 84.5 µM; with IGROV1 ovarian it was over 100 µM; in the assay with MOLT-4 leukemia, 62 µM and 57.3 µM; with NCI-H23 lung it was over 100 µM; in the assay with SNB-19 CNS, over 100 µM. The compound also came in with a TGI with UO-31 renal of over 100 µM.
For `CC(C(=O)O)/C(=C\c1ccc2c(c1)OCO2)C(=O)O` (centres undefined), the concentration for total growth inhibition (TGI) in the assay on HCT-116 colon was over 100 µM; in the assay with HOP-92 NSCLC, over 100 µM; with IGROV1 ovarian, over 100 µM; with MOLT-4 leukemia it was over 21.9 µM; with NCI-H226 lung, over 100 µM; in the assay on NCI-H23 lung, over 100 µM. The total growth inhibition concentration (TGI) in the assay with SNB-19 CNS, with SR leukemia and in the assay with UO-31 renal was over 100 µM throughout.
Consider `NC(=O)CCC(NC(=O)Cc1ccccc1)C(=O)O` (centres undefined) (tested in a mixture with another compound), for which the TGI in the assay with CCRF-CEM leukemia, in the assay with HCT-116 colon, with HOP-92 NSCLC, in the assay with IGROV1 ovarian, with MOLT-4 leukemia and with NCI-H23 lung was over 8130 µM each time. Further, the TGI with SNB-19 CNS was over 8130 µM; in the assay with SR leukemia, over 8130 µM; in the assay on UO-31 renal it was 2100 µM and > 8130 µM.
